# Measured values published in patent US20200085853A1, “TARGETING NR3B1 FOR TREATMENT OF NASH” (University of Southern California, priority 2018, published 2020).
# How the values were obtained:
# RXR = RXR agonist treatment, expression of lipogenic and triglyceride biosynthetic genes; assay type: cell-based; details: FIG. 6A
# From the text: To address how NR3B may inhibit the lipogenic and triglyceride synthesis process, the RNA-seq data for SREBP and Chrebp, two transcriptional factors directly involved in the biosynthesis of lipid was explored. […] RXR binds to both PPARg and LXR and has the potential to regulate lipid metabolism through its interaction with these two nuclear receptors. It was explored whether RXR activation alters the expression of the lipogenic and triglyceride biosynthetic genes.
# [1] = system: oxygen consumption rate (OCR); assay: Seahorse XF24 metabolic flux analysis (oxygen consumption rate); assay type: cell-based
# Procedure: Cells were cultured on XF24 plates during experiment. The mitochondrial inhibitors, oligomycin (1 μM), FCCP (0.1 μM) and Rotenone (1 μM) were added after four measurements of basal OCR as described previously.^14 • RNA Isolation, Reverse Transcription and Quantitative PCR
SMILES,expression of AGPAT3 (RXR),expression of DGAT2 (RXR),expression of Fasn (RXR),"effect on the NR3B-PA induced change of OCR ([1]; co-treatment with NR3B-PA, FIG. 6B)","basal oxygen consumption rate (OCR) ([1]; 0.1 μM, FIG. 2A)","maximal oxygen consumption rate (OCR) ([1]; 0.1 μM, FIG. 2A)"
C=C(c1ccc(C(=O)O)cc1)c1cc2c(cc1C)C(C)(C)CCC2(C)C [Bexarotene],induction,induction,induction,did not block,–,–
COc1cc(/C=C(\C#N)C(=O)Nc2nnc(C(F)(F)F)s2)ccc1OCc1ccc(C(F)(F)F)cc1C(F)(F)F [XCT 790],–,–,–,–,similar,similar
